What all share (experiment): biochemical
What all share (parameters): scanMAX competition binding; kinase recovered on immobilized ligand quantified by qPCR, per cent of control
Holding throughout (conditions): read-out: APA (POC)

One experiment concerns the target RIOK3 (Homo sapiens, UniProt O14730). On the procedure:
(§1) The binding affinities of APA and NAPA were evaluated in the scanMAX^sm Kinase Assay Panel (DiscoverX) at a final concentration of 10 µM. The compounds were tested for steric or allosteric binding to kinases in solution. The kinase was captured from the solution through an immobilized kinase-specific ligand and the kinase recovery was quantified. The amount of recovered kinase in the presence or absence of APA or NAPA was measured by quantitative PCR compared with the kinase capture in absence of the compound. Any compound reducing the binding affinity of a kinase to the respective immobilized ligand was scored as a potential hit, and the binding affinity of the compound toward a kinase is interpreted as the difference between the kinase recovery in the absence and presence of the compound. The inhibitory binding constants (Kd) of APA and NAPA to AURKA were evaluated in a KdELECT Kinase Assay (DiscoverX). […] Data acquisition followed the same methodology as for the scanMAX^sm Kinase Assay Panel. 6 Supplementary Figure 4. Kinome inhibition profiles of APA and its NAT2 metabolite NAPA identifies preferential APA kinase targets and differential binding to AURKA a The human kinome was assessed for binding affinity to APA and NAPA at 10 µM concentration (468 kinases in the scanMAX Kinase Assay Panel, DiscoverX). The family stratification of kinases is shown as a cladogram. Circles visualize the binding affinity of NAPA and APA towards each kinase with a higher intensity of blue corresponding to a higher binding affinity. […] One single data point from one experiment at a concentration 18.5 µM of APA was excluded as an outlier. c Thermal shift assay for human recombinant AURKA in the presence of APA and the selective inhibitor S1451. Melting temperatures were obtained by calculating the first derivative of the tryptophan fluorescence ratio at 350 nm and 330 nm and are shown for AURKA in the presence of S1451 (blue) and APA (yellow). Structural similarities between APA and kinase inhibitors[27] prompted investigation of protein kinases as mediators of APA toxicity. […] To enrich for kinase interactions that could explain the preferential killing of slow NAT2 cells, we compared the binding affinity of each kinase with APA and NAPA, selected 44 targets with preferential binding to APA and excluded kinases non-essential for cell survival and those not expressed in CRC cells (Supplementary Fig. 4A, Supplementary Table 4). […] The growth inhibition of RKO and DLD-1 following siRNA-mediated AURKA knockdown (Figs. 3c, d) reflected the relative efficiency of protein downregulation (Supplementary Fig. 5C, D). […] (Supplementary Fig. 4C). AURKA regulates cell cycle progression through association with other centrosome and spindle-associated proteins. Its activation requires auto-phosphorylation at Thr288 and ensures spindle pole integrity, centrosome duplication as well as adequate chromosomal alignment and segregation, while its inhibition leads to multipolar spindles with acentrosomal poles[28],[31]. […] S1451 reduced the fraction of pAURKA levels by >90% regardless of NAT2 expression (Fig. 3f and Su

The next experiment deals with CSNK2A2 (Homo sapiens, UniProt P19784). The protocol: as §1
The next experiment deals with NEK10 (Homo sapiens, UniProt Q6ZWH5). On the procedure:
as §1

The target in the next experiment is T1, RPS6KA6_Dom1 (Homo sapiens, UniProt Q9UK32).
T1 construct: gene RPS6KA6; Kin.Dom.1 N-terminal
On the procedure:
as §1

The target in the next experiment is T2, RPS6KA1_Dom1 (Homo sapiens, UniProt Q15418).
T2 construct: gene RPS6KA1; Kin.Dom.1 N-terminal
The protocol:
as §1

The target of a further experiment is MINK1 (Homo sapiens, UniProt Q8N4C8). On the procedure:
as §1

A further experiment deals with CSF1R (Homo sapiens, UniProt P07333). The protocol: as §1
A further experiment deals with CDKL2 (Homo sapiens, UniProt Q92772). The protocol: as §1
The next experiment has as its target AAK1 (Homo sapiens, UniProt Q2M2I8). On the procedure:
as §1

The target in another experiment is HIPK3 (Homo sapiens, UniProt Q9H422). The protocol: as §1
The next experiment deals with HIPK2 (Homo sapiens, UniProt Q9H2X6). The protocol:
as §1

The target in another experiment is RET (Homo sapiens, UniProt P07949). On the procedure: as §1
In the next experiment the target is KDR (Homo sapiens, UniProt P35968). The protocol: as §1
For another experiment, the target named is MKNK2 (Homo sapiens, UniProt Q9HBH9). The protocol:
as §1

Sequence of HIPK2 (Q9H2X6 whole entry): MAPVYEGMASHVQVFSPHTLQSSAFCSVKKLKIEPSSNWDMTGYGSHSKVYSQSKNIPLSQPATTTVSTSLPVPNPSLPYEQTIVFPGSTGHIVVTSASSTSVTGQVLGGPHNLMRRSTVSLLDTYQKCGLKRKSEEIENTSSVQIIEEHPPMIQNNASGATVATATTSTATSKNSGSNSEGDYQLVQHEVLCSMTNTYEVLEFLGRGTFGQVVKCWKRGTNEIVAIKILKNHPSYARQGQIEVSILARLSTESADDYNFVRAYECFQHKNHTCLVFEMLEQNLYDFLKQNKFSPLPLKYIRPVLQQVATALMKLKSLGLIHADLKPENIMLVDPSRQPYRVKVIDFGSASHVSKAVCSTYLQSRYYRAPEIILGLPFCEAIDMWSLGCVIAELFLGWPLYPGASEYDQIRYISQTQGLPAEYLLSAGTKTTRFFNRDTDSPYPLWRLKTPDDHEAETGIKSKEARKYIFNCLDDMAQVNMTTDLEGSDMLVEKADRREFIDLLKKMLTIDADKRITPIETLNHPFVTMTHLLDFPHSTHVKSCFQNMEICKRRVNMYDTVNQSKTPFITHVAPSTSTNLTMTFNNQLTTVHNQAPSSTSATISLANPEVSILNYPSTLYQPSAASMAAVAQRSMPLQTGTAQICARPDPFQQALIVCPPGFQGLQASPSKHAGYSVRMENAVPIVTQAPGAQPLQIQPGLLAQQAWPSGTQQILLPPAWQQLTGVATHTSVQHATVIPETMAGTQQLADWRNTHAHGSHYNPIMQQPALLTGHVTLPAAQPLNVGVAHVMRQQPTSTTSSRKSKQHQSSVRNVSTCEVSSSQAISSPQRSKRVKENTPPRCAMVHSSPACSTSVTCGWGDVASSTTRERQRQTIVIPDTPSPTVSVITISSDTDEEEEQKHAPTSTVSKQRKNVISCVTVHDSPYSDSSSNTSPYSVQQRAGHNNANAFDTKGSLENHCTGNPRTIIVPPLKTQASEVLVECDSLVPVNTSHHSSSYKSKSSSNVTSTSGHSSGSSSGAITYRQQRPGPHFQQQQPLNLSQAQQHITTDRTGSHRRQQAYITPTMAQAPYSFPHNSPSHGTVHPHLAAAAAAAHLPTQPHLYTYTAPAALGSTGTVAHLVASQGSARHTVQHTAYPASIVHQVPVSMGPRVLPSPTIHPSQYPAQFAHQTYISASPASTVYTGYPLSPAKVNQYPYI
Sequence of AAK1 (Q2M2I8 whole entry): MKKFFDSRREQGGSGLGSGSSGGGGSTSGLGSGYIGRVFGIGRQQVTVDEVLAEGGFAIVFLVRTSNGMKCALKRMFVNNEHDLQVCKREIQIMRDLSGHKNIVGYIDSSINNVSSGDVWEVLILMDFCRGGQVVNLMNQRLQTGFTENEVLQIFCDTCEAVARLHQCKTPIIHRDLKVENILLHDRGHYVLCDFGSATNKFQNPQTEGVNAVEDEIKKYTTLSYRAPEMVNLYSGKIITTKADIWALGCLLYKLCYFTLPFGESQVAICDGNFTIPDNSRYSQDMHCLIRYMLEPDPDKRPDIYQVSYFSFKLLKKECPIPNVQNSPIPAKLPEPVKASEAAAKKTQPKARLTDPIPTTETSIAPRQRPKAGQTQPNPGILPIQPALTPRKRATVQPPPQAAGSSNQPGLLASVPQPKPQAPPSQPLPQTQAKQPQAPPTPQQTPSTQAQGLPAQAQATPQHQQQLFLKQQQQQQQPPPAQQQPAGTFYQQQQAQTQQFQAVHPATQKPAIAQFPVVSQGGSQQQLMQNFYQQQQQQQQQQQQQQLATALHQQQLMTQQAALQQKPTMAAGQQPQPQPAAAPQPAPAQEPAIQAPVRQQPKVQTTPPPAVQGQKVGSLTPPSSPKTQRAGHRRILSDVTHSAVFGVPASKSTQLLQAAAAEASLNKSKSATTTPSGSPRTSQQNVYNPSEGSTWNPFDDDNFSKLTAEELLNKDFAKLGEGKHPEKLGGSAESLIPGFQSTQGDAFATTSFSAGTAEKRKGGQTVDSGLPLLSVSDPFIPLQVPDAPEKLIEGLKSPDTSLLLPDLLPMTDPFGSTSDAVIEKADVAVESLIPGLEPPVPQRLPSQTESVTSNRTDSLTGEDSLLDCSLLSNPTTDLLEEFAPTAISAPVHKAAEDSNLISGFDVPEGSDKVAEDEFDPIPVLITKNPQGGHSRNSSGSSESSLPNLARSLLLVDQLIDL
T2 sequence (Q15418 whole entry): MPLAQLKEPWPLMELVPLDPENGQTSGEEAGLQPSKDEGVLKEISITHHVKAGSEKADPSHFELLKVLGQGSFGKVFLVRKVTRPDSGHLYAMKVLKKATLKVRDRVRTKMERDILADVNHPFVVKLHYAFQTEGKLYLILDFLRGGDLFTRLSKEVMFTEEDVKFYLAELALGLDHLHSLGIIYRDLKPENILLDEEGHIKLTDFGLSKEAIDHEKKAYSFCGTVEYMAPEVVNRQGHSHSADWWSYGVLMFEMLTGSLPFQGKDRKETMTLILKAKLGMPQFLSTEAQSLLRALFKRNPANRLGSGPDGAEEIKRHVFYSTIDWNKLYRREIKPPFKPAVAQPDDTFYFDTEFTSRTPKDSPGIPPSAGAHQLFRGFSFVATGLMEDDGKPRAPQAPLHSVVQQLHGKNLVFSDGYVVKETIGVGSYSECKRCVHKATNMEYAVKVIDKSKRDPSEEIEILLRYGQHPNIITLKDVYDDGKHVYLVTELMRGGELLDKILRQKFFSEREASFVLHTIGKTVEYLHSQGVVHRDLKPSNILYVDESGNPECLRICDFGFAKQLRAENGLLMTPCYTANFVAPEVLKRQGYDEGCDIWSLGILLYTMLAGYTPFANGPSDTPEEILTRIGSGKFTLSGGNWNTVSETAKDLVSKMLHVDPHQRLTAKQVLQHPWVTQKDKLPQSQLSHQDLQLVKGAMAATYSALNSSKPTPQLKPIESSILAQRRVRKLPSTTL
T1 sequence (Q9UK32 whole entry): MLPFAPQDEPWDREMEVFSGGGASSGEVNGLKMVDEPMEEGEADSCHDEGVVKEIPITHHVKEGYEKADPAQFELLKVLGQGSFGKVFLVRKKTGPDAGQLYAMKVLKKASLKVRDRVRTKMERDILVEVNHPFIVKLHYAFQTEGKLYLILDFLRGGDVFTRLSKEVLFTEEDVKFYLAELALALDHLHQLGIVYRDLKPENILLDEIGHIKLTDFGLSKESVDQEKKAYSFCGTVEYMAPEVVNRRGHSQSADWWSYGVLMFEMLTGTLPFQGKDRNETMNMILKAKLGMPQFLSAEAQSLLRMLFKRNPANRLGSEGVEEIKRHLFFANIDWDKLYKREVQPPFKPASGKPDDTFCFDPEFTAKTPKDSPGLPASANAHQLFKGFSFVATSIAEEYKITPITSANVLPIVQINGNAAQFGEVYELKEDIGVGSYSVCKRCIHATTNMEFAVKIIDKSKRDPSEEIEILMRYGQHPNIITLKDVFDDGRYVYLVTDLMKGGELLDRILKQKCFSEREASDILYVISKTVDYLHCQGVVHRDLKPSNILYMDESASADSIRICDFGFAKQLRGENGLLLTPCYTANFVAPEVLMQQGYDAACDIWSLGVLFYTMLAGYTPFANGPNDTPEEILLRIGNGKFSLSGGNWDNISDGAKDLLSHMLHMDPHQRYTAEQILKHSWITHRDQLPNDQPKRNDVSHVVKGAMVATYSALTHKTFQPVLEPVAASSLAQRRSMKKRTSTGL
Sequence of MINK1 (Q8N4C8 whole entry): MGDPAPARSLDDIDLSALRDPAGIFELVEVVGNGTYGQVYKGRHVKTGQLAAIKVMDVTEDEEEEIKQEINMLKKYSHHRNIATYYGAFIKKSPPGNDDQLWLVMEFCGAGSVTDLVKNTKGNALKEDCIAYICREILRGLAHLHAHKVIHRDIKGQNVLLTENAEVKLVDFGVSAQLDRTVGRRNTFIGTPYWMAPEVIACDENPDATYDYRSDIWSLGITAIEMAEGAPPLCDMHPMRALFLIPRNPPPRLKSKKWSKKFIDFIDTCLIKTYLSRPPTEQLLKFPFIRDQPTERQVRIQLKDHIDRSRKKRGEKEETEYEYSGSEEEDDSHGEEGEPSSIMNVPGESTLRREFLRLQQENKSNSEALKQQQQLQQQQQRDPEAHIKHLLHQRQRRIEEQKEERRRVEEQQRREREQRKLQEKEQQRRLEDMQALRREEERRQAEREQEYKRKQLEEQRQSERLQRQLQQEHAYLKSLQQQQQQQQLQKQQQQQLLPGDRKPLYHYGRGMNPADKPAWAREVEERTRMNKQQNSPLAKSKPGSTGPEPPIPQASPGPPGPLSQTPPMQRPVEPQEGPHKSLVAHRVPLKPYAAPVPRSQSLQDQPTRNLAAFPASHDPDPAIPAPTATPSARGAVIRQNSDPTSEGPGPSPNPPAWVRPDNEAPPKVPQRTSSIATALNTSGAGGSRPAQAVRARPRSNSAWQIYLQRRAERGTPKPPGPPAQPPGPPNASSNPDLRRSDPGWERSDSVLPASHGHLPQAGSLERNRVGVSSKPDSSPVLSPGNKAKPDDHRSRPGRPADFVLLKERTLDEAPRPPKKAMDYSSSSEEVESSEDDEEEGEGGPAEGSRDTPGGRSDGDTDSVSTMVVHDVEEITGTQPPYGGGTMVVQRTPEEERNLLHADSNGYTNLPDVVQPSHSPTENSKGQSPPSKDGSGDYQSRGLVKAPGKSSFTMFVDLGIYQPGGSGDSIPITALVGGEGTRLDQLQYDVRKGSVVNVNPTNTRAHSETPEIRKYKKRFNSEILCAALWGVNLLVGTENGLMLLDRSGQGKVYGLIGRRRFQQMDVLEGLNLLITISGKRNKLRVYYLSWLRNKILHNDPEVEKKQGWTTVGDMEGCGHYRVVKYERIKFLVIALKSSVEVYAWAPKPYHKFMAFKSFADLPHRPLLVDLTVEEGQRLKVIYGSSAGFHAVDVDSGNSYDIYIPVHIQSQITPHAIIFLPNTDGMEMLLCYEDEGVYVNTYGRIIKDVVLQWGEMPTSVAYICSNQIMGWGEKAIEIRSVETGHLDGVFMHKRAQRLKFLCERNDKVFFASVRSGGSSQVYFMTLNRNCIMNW

Take `COc1cc(Nc2cncc(-c3ccc(N)cc3)n2)cc(OC)c1OC` [APA, 6-(4-aminophenyl)-N-(3,4,5-trimethoxyphenyl)pyrazin-2-amine]: the remaining binding at 10 µM at RIOK3 is 21%; on CSNK2A2, 29%; at NEK10 it was 37%; on RPS6KA6_Dom1 it was 58%; at RPS6KA1_Dom1, 56%; on MINK1, 24%. Moreover, the remaining binding at 10 µM at CSF1R was 3.9%; at CDKL2, 42%; at AAK1 it was 45%; at HIPK3, 42%; on HIPK2 it was 22%; on RET, 24%. The remaining binding at 10 µM at KDR was 7.1%; on MKNK2, 26%.

These data come from article PMC7066191, “Exploiting loss of heterozygosity for allele-selective colorectal cancer chemotherapy” (Nature Communications, 2020).
